Experimental data taken from patent US12613237B2, “Biosensors for detecting arrestin signaling” (MONTANA MOLECULAR, LLC, priority 2018, dated 2026).

Test system: vasopressin receptor
Format: cell-based
Settings: HEK293T cells (FIG. 8), compared to vasopressin

CC[C@H](C)[C@@H]1NC(=O)[C@H](Cc2ccc(O)cc2)NC(=O)[C@@H](N)CSSC[C@@H](C(=O)N2CCC[C@H]2C(=O)N[C@@H](CC(C)C)C(=O)NCC(N)=O)NC(=O)[C@H](CC(N)=O)NC(=O)[C@H](CCC(N)=O)NC1=O [oxytocin]
beta arrestin signaling (green fluorescence), speed: significantly slower
